In ChEMBL document CHEMBL2016476, “Phosphonium lipocations as antiparasitic agents” (Bioorg Med Chem Lett, 2012):

Assays:
[1] = Octanol-water partition coefficient, log D of the compound at pH 7.4; format: physicochemical
[2] = tested on: Plasmodium falciparum; test: microbe, parasite or virus in culture; settings: W2
Description: Antiplasmodial activity against Plasmodium falciparum W2 infected in human erythrocytes

[3] = tested on: Trypanosoma cruzi; test: Antitrypanosomal activity against Trypanosoma cruzi Tulahuen 2 infected in african green monkey Vero cells expressing red fluorescent protein after 3 days by fluorescence analysis; format: functional, organism-based; settings: Tulahuen 2, Vero, 72 h
[4] = tested on: Vero; test: Cytotoxicity against african green monkey Vero cells at 25 uM after 3 days; format: cell-based; settings: chlorocebus sabaeus, 72 h
[5] = tested on: Vero; test: Cytotoxicity against african green monkey Vero cells at 6.25 uM after 3 days; format: cell-based; settings: chlorocebus sabaeus, 72 h

SMILES | logD [1] | IC50 [2] | IC50 [3] | Activity [4] | Activity [5]
CC1=C(CCCCCCCCCC[P+](C)(C)C)C(=O)c2ccccc2C1=O | 1.95 | 404 nM | – | – | –
C[P+](C)(C)CCCCCCCCCCN1C(=O)c2ccccc2C1=O | -0.08 | > 10000 nM | – | – | –
O=C1c2ccccc2C(=O)N1CCCC[P+](c1ccccc1)(c1ccccc1)c1ccccc1 | 0.01 | 3500 nM | – | – | –
O=C1c2ccccc2C(=O)N1CCCCCC[P+](c1ccccc1)(c1ccccc1)c1ccccc1 | 1.14 | 1020 nM | – | – | –
O=C1c2ccccc2C(=O)N1CCCCCCCCCC[P+](c1ccc(F)cc1)(c1ccc(F)cc1)c1ccc(F)cc1 | 2.13 | 346 nM | – | – | –
O=C1c2ccccc2C(=O)N1CCCCCCCCCC[P+](Cc1ccccc1)(Cc1ccccc1)Cc1ccccc1 | 1.37 | 288 nM | – | – | –
CCCC[P+](CCCC)(CCCC)CCCCCCCCCCN1C(=O)c2ccccc2C1=O | 3.68 | 194 nM | – | – | –
O=C1c2ccccc2C(=O)N1CCCCCCCCCC[P+](c1ccccc1)(c1ccccc1)c1ccccc1 | 1.67 | 173 nM | – | – | –
Cc1ccccc1[P+](CCCCCCCCCCN1C(=O)c2ccccc2C1=O)(c1ccccc1C)c1ccccc1C | -0.75 | 143 nM | – | – | –
O=C1c2ccccc2C(=O)N1CCCCCCCCCC[P+](C1CCCCC1)(C1CCCCC1)C1CCCCC1 | 4.5 | 141 nM | – | – | –
COc1ccc([P+](CCCCCCCCCCN2C(=O)c3ccccc3C2=O)(c2ccc(OC)cc2)c2ccc(OC)cc2)cc1 | 3.19 | 134 nM | – | – | –
O=C1C=C(NCC[P+](c2ccccc2)(c2ccccc2)c2ccccc2)C(=O)c2ccccc21 | -1.08 | 520 nM | – | – | –
O=C1C=C(NCCCCCCCCCC[P+](c2ccc(F)cc2)(c2ccc(F)cc2)c2ccc(F)cc2)C(=O)c2ccccc21 | 1.67 | 292 nM | – | – | –
O=C1C=C(NCCCCCCCCCC[P+](Cc2ccccc2)(Cc2ccccc2)Cc2ccccc2)C(=O)c2ccccc21 | 2.8 | 215 nM | – | – | –
COc1ccc([P+](CCCCCCCCCCNC2=CC(=O)c3ccccc3C2=O)(c2ccc(OC)cc2)c2ccc(OC)cc2)cc1 | 4.37 | 134 nM | – | – | –
O=C1C=C(NCCCCCCCCCC[P+](c2ccccc2)(c2ccccc2)c2ccccc2)C(=O)c2ccccc21 | 3.6 | 114 nM | 1600 nM | Toxic | Toxic
O=C1C=C(NCCCCCCCCCC[P+](C2CCCCC2)(C2CCCCC2)C2CCCCC2)C(=O)c2ccccc21 | 3.41 | 94.4 nM | – | – | –
O=C1C=C(CCCCCCCCCC[P+](Cc2ccccc2)(Cc2ccccc2)Cc2ccccc2)C(=O)c2ccccc21 | 5.32 | 1300 nM | 3000 nM | Non-toxic | Non-toxic
O=C1C=C(CCCCCCCCCC[P+](c2ccc(F)cc2)(c2ccc(F)cc2)c2ccc(F)cc2)C(=O)c2ccccc21 | 1.66 | 846 nM | – | – | –
O=C1C=C(CCCCCCCCCC[P+](c2ccccc2)(c2ccccc2)c2ccccc2)C(=O)c2ccccc21 | 4.08 | 259 nM | – | – | –

SMILES | logD [1] | IC50 [2] | IC50 [3] | Activity [4] | Activity [5]
O=C1C=C(CCCCC[P+](c2ccccc2)(c2ccccc2)c2ccccc2)C(=O)c2ccccc21 | 1 | 157 nM | – | – | –
CC1=C(CCCCC[P+](C)(C)C)C(=O)c2ccccc2C1=O | 0.21 | 956 nM | – | – | –
CC1=C(C[P+](c2ccccc2)(c2ccccc2)c2ccccc2)C(=O)c2ccccc2C1=O | 1.89 | 543 nM | – | – | –
CC1=C(CCCCCCCCCC[P+](Cc2ccccc2)(Cc2ccccc2)Cc2ccccc2)C(=O)c2ccccc2C1=O | 6.64 | 212 nM | 3700 nM | Toxic | Non-toxic
CCCC[P+](CCCC)(CCCC)CCCCCCCCCCC1=C(C)C(=O)c2ccccc2C1=O | 5.1 | 156 nM | 4000 nM | Toxic | Non-toxic
CC1=C(CCCCCCCCCC[P+](c2ccccc2C)(c2ccccc2C)c2ccccc2C)C(=O)c2ccccc2C1=O | 3.58 | 143 nM | – | – | –
CC1=C(CCCCCCCCCC[P+](c2ccccc2)(c2ccccc2)c2ccccc2)C(=O)c2ccccc2C1=O | 3.97 | 143 nM | 1600 nM | Toxic | Toxic
CC1=C(CCCCCCCCCC[P+](C2CCCCC2)(C2CCCCC2)C2CCCCC2)C(=O)c2ccccc2C1=O | 3.64 | 134 nM | 2400 nM | Toxic | Non-toxic
COc1ccc([P+](CCCCCCCCCCC2=C(C)C(=O)c3ccccc3C2=O)(c2ccc(OC)cc2)c2ccc(OC)cc2)cc1 | 3.52 | 131 nM | – | – | –
CC1=C(CCCCC[P+](c2ccccc2)(c2ccccc2)c2ccccc2)C(=O)c2ccccc2C1=O | 2.15 | 48.3 nM | 5400 nM | Toxic | Non-toxic
CC1=C(CCCC[P+](c2ccccc2)(c2ccccc2)c2ccccc2)C(=O)c2ccccc2C1=O | 1.91 | 18.7 nM | 2700 nM | Non-toxic | Non-toxic
CCCCCCCCCNC1=CC(=O)c2ccccc2C1=O | – | > 10000 nM | 17300 nM | Non-toxic | Non-toxic
CCCCCCCCCCC1=CC(=O)c2ccccc2C1=O | – | > 10000 nM | 9300 nM | Non-toxic | Non-toxic
CCCCCCCCCCN1C(=O)c2ccccc2C1=O | – | > 10000 nM | – | – | –
C[C@@H]1CC[C@H]2[C@@H](C)C(=O)O[C@@H]3O[C@@]4(C)CC[C@@H]1[C@]32OO4 [ARTEMISININ] | – | 7.31 nM | – | – | –
O=C1C(O)=C([C@H]2CC[C@H](c3ccc(Cl)cc3)CC2)C(=O)c2ccccc21 [ATOVAQUONE] | – | 0.28 nM | – | – | –
O=C(Cn1ccnc1[N+](=O)[O-])NCc1ccccc1 [BENZNIDAZOLE] | – | – | – | Non-toxic | Non-toxic
CCCC[P+](c1ccccc1)(c1ccccc1)c1ccccc1 [BUTYLTRIPHENYLPHOSPHONIUM] | – | 3500 nM | – | – | –
CCCCCCCCCC[P+](c1ccccc1)(c1ccccc1)c1ccccc1 [DECYLTRIPHENYLPHOSPHONIUM] | – | 142 nM | – | – | –
